From article PMC10876507, “Chelator impact: investigating the pharmacokinetic behavior of copper-64 labeled PD-L1 radioligands” (EJNMMI Radiopharmacy and Chemistry, 2024)

Test system: PC3 PD-L1 overexpressing and PD-L1-mock tumors
Experiment: PET imaging in NMRI-nude mice bearing PC3 PD-L1 and PC3 mock tumors
Assay type: in vivo
Settings: for reduction of PD-L1 positive tumor uptake under blocking conditions / reduction of liver uptake under blocking conditions / contrast of PD-L1 positive tumor SUVmax over mock tumor: 1–2 h p.i.; for reduction of PD-L1 positive tumor uptake under blocking conditions / reduction of liver uptake under blocking conditions: 500 nmol unlabeled compound; for contrast of PD-L1 positive tumor SUVmax over mock tumor: percent higher than mock tumor; for excretion pattern / clearance route in PET / SUVmax PC3 PD-L1 tumor, blocking / SUVmax PC3 mock tumor, blocking / SUVmax kidney, blocking / SUVmax liver, blocking / SUVmax PC3 PD-L1 tumor / SUVmax PC3 mock tumor / SUVmax kidney / SUVmax liver: mice; for excretion pattern / clearance route in PET: PET 0–25 h p.i.; for SUVmax PC3 PD-L1 tumor / SUVmax PC3 mock tumor / SUVmax kidney / SUVmax liver: tracer only, i.v.
Protocol: Male athymic NMRI-nude mice (Rj:NMRI-Foxn1nu, Janvier Labs, Le Genest-Saint-Isle, France) aged between 8 to 16 weeks were employed for the study. General anesthesia was induced [~ 10% desflurane (Baxter, Deerfield, IL, USA) in 30 vol% oxygen + air] under controlled warming (37°C), and mice were subcutaneously injected with 3–5 × 10^6 PC3 PD-L1 and PC3 mock cells (in 50 µL PBS + 50 µL Matrigel, Corning, Glendale, CA, USA) into the right and left thigh, respectively. The growth of tumors was systematically monitored three times per week through caliper measurements, and animals with tumor sizes above 7 mm were included in the subsequent experiments.
PET and X-ray computed tomography (CT) scans were conducted under general anesthesia using a small animal nanoScan PET/CT scanner (Mediso, Budapest, Hungary), capable of imaging four animals simultaneously. CT images served attenuation correction and anatomical referencing. A total of three individual scans were conducted, corresponding to the timeframes of 0–2 h (dynamic reconstruction), 4–5 h, and 24–25 h (one frame reconstruction) after injection.
The PD-L1 radiotracer candidates (in 300 µL sterile 0.9% NaCl/HEPES buffer, pH 6–7, containing between 7 and 12 MBq, with molar activities exceeding 12 GBq/µmol) were intravenously delivered over 30 s through a catheter in the lateral tail vein. The PET acquisition was initiated simultaneously with the administration.
The acquired three-dimensional list mode data were sorted and binned within a 400–600 keV energy window, forming […] (15 × 10 s, 5 × 30 s, 5 × 60 s, 4 × 300 s, 3 × 600 s, 3 × 1200 s). Reconstruction of the time frames was accomplished using the Tera-TomoTM 3D algorithm, utilizing a voxel size of 0.4 mm and applying corrections for decay, scatter, and attenuation. The images were subjected to post-processing and analysis using Rover software (ABX GmbH, Radeberg, Germany), and were depicted as maximum intensity projections (MIPs) at the specified timepoints and scaling.
Three-dimensional volumes of interest were defined using fixed thresholding at 35–40% of the maximal measured intensity. Standardized uptake values (SUV = [MBq detected activity/mL tissue] / [MBq injected activity/g body weight], in mL/g) were then calculated within the selected volumes of interest, encompassing PD-L1 and mock tumors, as well as metabolizing organs.

[1] = tracer +500 nM respective unlabeled compound (injected 5 min prior), 1-2 hour p.i.
[2] = tracer +500 nM respective unlabeled compound, 1-2 hour p.i.
[3] = tracer +500 nM respective unlabeled compound, 4-5 hour p.i.
[4] = tracer +500 nM respective unlabeled compound, 24-25 hour p.i.
[5] = 1-2 hour p.i., listed as [64Cu]Cu-14
[6] = 4-5 hour p.i., listed as [64Cu]Cu-14
[7] = 1-2 hour p.i., listed as [64Cu]Cu-16

How did the “reduction of PD-L1 positive tumor uptake under blocking conditions” value turn out when `Cc1c(COc2cc(OCc3cncc(S(C)(=O)=O)c3)c(CN[C@@H](CS(=O)(=O)O)C(=O)NCCS(=O)(=O)O)cc2Br)cccc1-c1cccc(OCc2cn(CCCN3CCN(C(=O)[C@H](CS(=O)(=O)O)NC(=O)CC[C@H](C(=O)[O-])N4CCN(CC(=O)[O-])CCN(CC(=O)[O-])CC4)CC3)nn2)c1C.[64Cu+2]` [[^64Cu]Cu-14] was run?
The value was 13%.

And the “reduction of liver uptake under blocking conditions” value?
Its value is 63%.

What about the “contrast of PD-L1 positive tumor SUVmax over mock tumor” value of the same compound?
Its value is 99%.

What about the “excretion pattern / clearance route in PET” value of the same compound?
Its value is “favorable renal clearance”.

What about the “SUVmax PC3 PD-L1 tumor, blocking” value [1] of the same compound?
The value was 1.48 ± 0.44.

What about the “SUVmax PC3 PD-L1 tumor, blocking” value (tracer +500 nM respective unlabeled compound (injected 5 min prior), 1-2 hour p.i., listed as [64Cu]Cu-14) of the same compound?
The value was 1.48.

And the “SUVmax PC3 mock tumor, blocking” value [2]?
Its value is 1.19.

What about the “SUVmax kidney, blocking” value [2] of the same compound?
The value was 32.81.

What about the “SUVmax liver, blocking” value [2] of the same compound?
Its value is 1.25 ± 0.13.

And the “SUVmax liver, blocking” value (tracer +500 nM respective unlabeled compound, 1-2 hour p.i., listed as [64Cu]Cu-14)?
The value was 1.25.

What about the “SUVmax PC3 PD-L1 tumor, blocking” value [3] of the same compound?
The value was 0.78.

What about the “SUVmax PC3 mock tumor, blocking” value [3] of the same compound?
Its value is 0.48.

What about the “SUVmax kidney, blocking” value [3] of the same compound?
The value was 0.88.

And the “SUVmax liver, blocking” value [3]?
The value was 0.98.

What about the “SUVmax PC3 PD-L1 tumor, blocking” value [4] of the same compound?
Its value is 1.53.

What about the “SUVmax PC3 mock tumor, blocking” value [4] of the same compound?
Its value is 1.05.

What about the “SUVmax kidney, blocking” value [4] of the same compound?
Its value is 0.44.

And the “SUVmax liver, blocking” value [4]?
Its value is 0.99.

And the “SUVmax PC3 PD-L1 tumor” value (1-2 hour p.i.)?
The value was 1.71 ± 0.04.

And the “SUVmax PC3 mock tumor” value (1-2 hour p.i.)?
The value was 0.86 ± 0.16.

And the SUVmax kidney (1-2 hour p.i.)?
The SUVmax kidney was 22.8 ± 3.0.

What about the SUVmax liver (1-2 hour p.i.) of the same compound?
Its SUVmax liver is 3.41 ± 0.19.

And the “SUVmax PC3 PD-L1 tumor” value [5]?
Its value is 1.71.

What about the “SUVmax PC3 mock tumor” value [5] of the same compound?
The value was 0.86.

What about the SUVmax kidney [5] of the same compound?
Its SUVmax kidney is 22.77.

And the SUVmax liver [5]?
The SUVmax liver was 3.41.

What about the “SUVmax PC3 PD-L1 tumor” value (4-5 hour p.i.) of the same compound?
Its value is 1.26.

What about the “SUVmax PC3 mock tumor” value (4-5 hour p.i.) of the same compound?
The value was 0.50.

And the SUVmax kidney (4-5 hour p.i.)?
The SUVmax kidney was 0.72 ± 0.24.

And the SUVmax liver (4-5 hour p.i.)?
The SUVmax liver was 1.54 ± 0.19.

What about the SUVmax kidney [6] of the same compound?
The SUVmax kidney was 0.72.

What about the SUVmax liver [6] of the same compound?
The SUVmax liver was 1.54.

What about the “SUVmax PC3 PD-L1 tumor” value (24-25 hour p.i.) of the same compound?
The value was 1.52.

What about the “SUVmax PC3 mock tumor” value (24-25 hour p.i.) of the same compound?
Its value is 1.49.

What about the SUVmax kidney (24-25 hour p.i.) of the same compound?
Its SUVmax kidney is 0.63.

And the SUVmax liver (24-25 hour p.i.)?
Its SUVmax liver is 1.41.

Which results are given for `Cc1c(COc2cc(OCc3cncc(S(C)(=O)=O)c3)c(CN[C@@H](CS(=O)(=O)O)C(=O)NCCS(=O)(=O)O)cc2Br)cccc1-c1cccc(OCc2cn(CCCN3CCN(C(=O)[C@H](CS(=O)(=O)O)NC(=O)CCCC(=O)NC45CNCCNCC(N)(CNCCNC4)CNCCNC5)CC3)nn2)c1C.[64Cu+2]` [[^64Cu]Cu-16]?
reduction of PD-L1 positive tumor uptake under blocking conditions: 10%; reduction of liver uptake under blocking conditions: 74%; contrast of PD-L1 positive tumor SUVmax over mock tumor: 107%; excretion pattern / clearance route in PET: clearance via the renal pathway; SUVmax PC3 PD-L1 tumor, blocking [1]: 1.45 ± 0.06; SUVmax PC3 PD-L1 tumor, blocking (tracer +500 nM respective unlabeled compound (injected 5 min prior), 1-2 hour p.i., listed as [64Cu]Cu-16): 1.45; SUVmax PC3 mock tumor, blocking [2]: 0.90; SUVmax kidney, blocking [2]: 7.93; SUVmax liver, blocking [2]: 1.13 ± 0.04; SUVmax liver, blocking (tracer +500 nM respective unlabeled compound, 1-2 hour p.i., listed as [64Cu]Cu-16): 1.13; SUVmax PC3 PD-L1 tumor, blocking [3]: 0.68; SUVmax PC3 mock tumor, blocking [3]: 0.54; SUVmax kidney, blocking [3]: 1.28; SUVmax liver, blocking [3]: 0.84; SUVmax PC3 PD-L1 tumor, blocking [4]: 1.14; SUVmax PC3 mock tumor, blocking [4]: 1.01; SUVmax kidney, blocking [4]: 1.02; SUVmax liver, blocking [4]: 0.85; SUVmax PC3 PD-L1 tumor (1-2 hour p.i.): 1.61 ± 0.93; SUVmax PC3 mock tumor (1-2 hour p.i.): 0.78 ± 0.36; SUVmax kidney (1-2 hour p.i.): 16.2 ± 15.5; SUVmax liver (1-2 hour p.i.): 4.32 ± 0.02; SUVmax PC3 PD-L1 tumor [7]: 1.61; SUVmax PC3 mock tumor [7]: 0.78; SUVmax kidney [7]: 16.18; SUVmax liver [7]: 4.32; SUVmax PC3 PD-L1 tumor (4-5 hour p.i.): 0.89; SUVmax PC3 mock tumor (4-5 hour p.i.): 0.37; SUVmax kidney (4-5 hour p.i.): 1.37; SUVmax liver (4-5 hour p.i.): 2.49; SUVmax PC3 PD-L1 tumor (24-25 hour p.i.): 1.47; SUVmax PC3 mock tumor (24-25 hour p.i.): 0.87; SUVmax kidney (24-25 hour p.i.): 0.90; SUVmax liver (24-25 hour p.i.): 1.77 ± 0.08; SUVmax liver (24-25 hour p.i., listed as [64Cu]Cu-16): 1.77
